Where “and” joins values, the source holds several entries; their conditions need not be identical. Equal entries are not always repeated. Peptide text beside a SMILES is read from it.
Key:
[1] = system: STZ-induced diabetic rats; assay: Neuropathic pain in STZ model (Hargreaves thermal nociception); type: in vivo, Sprague-Dawley rats; conditions: 10 mg/kg i.p. daily, treatment started 45 days post-STZ
Experimental: Male Sprague-Dawley rats (200–225 g) were rendered diabetic by intravenous administration of streptozotocin (“STZ”, 70 mg/kg in phosphate buffered saline). Diabetic animals were divided into five groups: one group receiving Compound A (10 mg/kg or 1 mg/kg), Compound D (10 mg/kg or 1 mg/kg) or vehicle. Another group of animals (non-STZ treated) served as non-diabetic controls. Drug/vehicle treatment was started in diabetic animals 45 days post-STZ administration. STZ-induced diabetic rats were tested for sensitivity to a heat source as soon as blood glucose levels rose to 320 mg/dl or above (30 days post STZ). The rats were then acclimated to a Hargreaves apparatus and thermal nociception was monitored using an infrared heat source directed into the dorsal surface of the hindpaw, and the time taken for the animal to remove its paw noted to the nearest 0.1 seconds (see Hargreaves et al., supra, for detailed experimental method). The intensity of the beam source was adjusted such that the mean latency for control animals (non-STZ treated) was approximately 10 seconds. Each animal was tested 8 times and the mean difference score (between mean non-diabetic control latency and mean diabetic latency) are graphically presented in FIGS. 7A and 7B.

[2] = system: rats with unilateral elevation of intraocular pressure; assay: Experimental rat glaucoma (IOP elevation, optic nerve fiber counting); type: in vivo
Experimental: (§1) All experiments complied with the Association for Research in Vision and Ophthalmology Statement for the Use of Animals in Ophthalmic and Vision Research. 82 male Brown Norway rats (Rattus norvegicus), each weighing approximately 250 gm, were treated using procedures approved by the Animal Care Committee of the Johns Hopkins University School of Medicine. The rats were housed with a 12 hour light/12 hour dark cycle and fed ad libitum.
EXPERIMENTAL GLAUCOMA: Unilateral elevation of intraocular pressure (“IOP”) was produced in 56 rats by microinjection of hypertonic saline into episcleral veins, following procedures described in Morrison, J. et al., IOVS (March 1998) 39:526–531. Beginning on the day of IOP elevation, the rats were treated daily with intraperitoneal injections of either a vehicle (23 rats with 50 mM HEPES-buffered saline) or a NAALADase inhibitor (11 rats with 10 mg/kg of Compound A and 22 rats with 10 mg/kg of Compound B). 11 saline treated rats, 11 Compound A treated rats and 11 Compound B treated rats were sacrificed at 8 weeks, and the remaining rats at 12 weeks, after initial IOP elevation.
(§2) OPTIC NERVE COUNTING: The rats were sacrificed by exsanguination under deep pentobarbital anesthesia. They were perfused through the heart with 2% paraformaldehyde/2% glutaraldehyde in 0.1 M phosphate buffer, pH 7.2, and the eyes with attached optic nerves were removed. A cross-section of the optic nerve from both experimental (glaucoma or transection) and control eyes was removed 1.5 mm posterior to the globe, 1 mm in thickness, and post-fixed in 2% osmium tetroxide in buffer. These were processed into epoxy resin, sectioned at 1 micron and stained with toluidine blue.
(§3) The area of the optic nerve cross-section was measured by outlining its outer border at 10× magnification on an image analysis system (Universal Imaging Corp., Westchester, Pa.) with Synsys digital camera and Metamorph software. Three area measurements were taken and the mean value was determined. To measure the density and fiber diameter distributions, images were captured with a 100× phase contrast objective from 10 different areas of each nerve. These were edited to eliminate non-neural objects and the size of each axon internal to the myelin sheath (its minimum diameter) and the density of axons/square mm were calculated for each image and nerve. The mean density was multiplied by total nerve area to yield fiber number for each nerve. The total fiber number in glaucoma or transection nerves was compared to the normal, fellow eye of each rat to yield a percent loss value. The number of axons counted among the 10 images was an approximately 20% sample of the 80–90,000 axons in normal rat nerves. The person measuring axon number was masked to the protocol conducted on the nerves.

[3] = system: rats with unilaterally transected optic nerve; assay: Optic nerve transection (optic nerve fiber counting); type: in vivo, Rattus norvegicus; conditions: for FIBER NUMBER / PERCENT DIFFERENCE (fiber number between transected eye and normal eye): 10 mg/kg i.p. daily
Experimental: as §1
OPTIC NERVE TRANSECTION: The optic nerve was transected unilaterally in 26 rats under intraperitoneal pentobarbital anesthesia. The conjunctiva was opened with scissors and the optic nerve exposed by traction on extraocular muscles. The transection was performed with microscissors 5 mm posterior to the globe, with specific attention to avoidance of injury to major ocular blood vessels. Immediately after transection, the retina was examined ophthalmoscopically to assure that the retinal arterial blood supply was not disrupted. The conjunctiva was closed with absorbable suture and the eye dressed with antibiotic ointment. Beginning on the day of transection, the rats were treated daily with intraperitoneal injections of either a vehicle (9 rats with 50 mM HEPES-buffered saline) or a NAALADase inhibitor (8 rats with 10 mg/kg of Compound A and 9 rats with 10 mg/kg of Compound B). 5 saline treated rats, 3 Compound A treated rats and 4 Compound B treated rats were sacrificed at 2 weeks, and the remaining rats at 4 weeks, after transection.
as §2, §3

BB/W diabetic rats = assay: Progression of neuropathic pain and nerve conduction deficits in BB/W model; type: in vivo
Text: Male BB/W rats (BRI, Mass) spontaneously develop a cell mediated autoimmune destruction of pancreatic B cells, resulting in onset of insulin-dependent (Type I) diabetes (Guberski 1994). […] This renders them valuable for experimental trials of new compounds for future treatments of this major disorder. In the present study, Compound D and Compound A were examined for their ability to alter the progression of diabetic neuropathy. […] Another group of non-diabetic rats also receiving vehicle were tested. All animals were continuously monitored for body weight, urine volume, blood sugar and glycated haemoglobin. In the first month of the study, all animals were tested for thermal nociception in a Hargreaves apparatus, weekly. After the first month this was done biweekly and then monthly. The testing consists of directing an infrared heat source onto the dorsal surface of the rat hindpaw and noting the time taken for the animal to remove its paw (see Hargreaves et al., supra, for a description of the experimental method). Each animal was tested 8 times and the mean withdrawal latency noted.
Nerve conduction velocity was also measured every two weeks through the first eight weeks of treatment and every month thereafter through to the six months of treatment (see De Koning et al., Peptides, Vol. 8, No. 3, pp. 415–22 (1987) for a description of the experimental method). […] This was apparent starting at 8 weeks of treatment and persisted to a similar degree through to the six month termination point of the study.

STZ-diabetic rats = assay: Diabetic neuropathy in STZ model (motor and sensory nerve conduction velocity); type: in vivo
Experimental: Motor and sensory nerve conduction velocity was also measured in STZ-diabetic animals after 4, 8 and 12 weeks of treatment (see De Koning et al., supra, for a description of the experimental method). Briefly, stimulating needle electrodes were inserted close to the sciatic and tibial nerves with recording electrodes being placed subcutaneously over the distal foot muscles, in anesthetized rats.

transgenic G1H mice = assay: Effect of NAALADase inhibitors on onset of ALS (FALS transgenic mice); type: in vivo
Experimental: The effect of NAALADase inhibitors on the onset of ALS was tested using the transgenic mice model of familial amyotrophic lateral sclerosis (FALS), which is detailed in Gurney, M., Annals of Neurology (1996) 39:147–157, and otherwise well known in the art. One month old transgenic G1H mice were treated with daily intraperitoneal injections of a vehicle (50 mM HEPES-buffered saline) or a NAALADase inhibitor (50 mg/kg Compound A). Clinical symptoms of the mice were monitored daily. The onset of clinical disease was scored by examining each mouse for its shaking of limbs when suspended in the air by its tail, cross spread of spinal reflexes, hindlimb paralysis, body weight and wheel running activity.

TGF-β2 = assay: Effect of NAALADase inhibition on TGF-β2 in in vitro ischemia model; type: cell-based; conditions: ischemic cell cultures, FIG. 2
Experimental: (§4) A NAALADase inhibitor, Compound C, was added to ischemia cell cultures to determine its effect on TGF-β levels during stroke.

TGF-β1 [4] = assay: Effect of NAALADase inhibition on TGF-β1 in in vitro ischemia model; type: cell-based; conditions: ischemic cell cultures, FIG. 1
Experimental: as §4

[5] = system: rats subjected to middle cerebral artery occlusion; assay: Neuroprotective effect in MCAO rats with TGF-β neutralizing antibodies; type: in vivo; conditions: FIG. 5
Text: The effect of TGF-β neutralizing antibodies on the neuroprotective effect of Compound C was also studied in rats following MCAO.
One of ordinary skill in the art can appreciate that the regulation of TGF-β's by NAALADase inhibitors may have implications not only in stroke, but also in other diseases, disorders and conditions including, without limitation, neurological diseases, psychiatric diseases, demyelinating diseases, prostate cancer, inflammation, diabetes and angiogenesis.

TGF-β1 [6] = assay: TGF-β1 levels in MCAO rats assessed by microdialysis; type: in vivo; conditions: during both occlusion and reperfusion, FIG. 6
ischemic cell cultures = assay: Neuroprotective effect in in vitro ischemia model with growth factor neutralizing antibodies; type: cell-based
Experimental: TGF-β neutralizing antibodies were then added to the ischemic cell cultures.

[7] = system: chronic constrictive injury-induced rats; assay: Neuropathic pain in CCI model (sciatic nerve ligation, thermal hyperalgesia); type: in vivo; conditions: 50 mg/kg i.p. daily starting 10 days post surgery
Experimental: Sciatic nerve ligation, consisting of 4 ligatures tied loosely around the sciatic nerve at 1 mm intervals proximal to the nerve trifurcation, was performed on rats. […] The rats were habituated to a Hargreaves apparatus. An infrared heat source was directed onto the dorsal surface of each rat's hindpaws and the time taken for the rat to withdraw its paws was noted. The difference in scores between the latency of the response for the paw on the operated side versus the paw on the unoperated control side was determined.
The rats were treated with either Compound 49 (10, 1 or 0.1 mg/kg) or a vehicle for 15 days after sciatic nerve ligation. Thermal pain responses were measured at days 0, 1, 5, 8, 11 and 15. The differences in scores for the rats treated with a vehicle and the rats treated with Compound 49 are graphically presented in FIGS. 13-15.
The rats were treated with either Compound 5 (50, 30, 10, 3, 1 or 0.3 mg/kg) or a vehicle for 12 (or 15) days after sciatic nerve ligation. Thermal pain responses were measured at days 0, 1, 5, 8 and 12 (and 15). The differences in scores for the rats treated with a vehicle and the rats treated with Compound 5 are graphically presented in FIGS. 17-22.
The rats received either Compound C (50 mg/kg i.p. daily) or a vehicle starting 10 days post surgery. […] Normal (unoperated) rats had approximately equal latencies for both paws. This effect was significant starting at 11 days of drug treatment and persisted through to the end of the study (for 21 days of daily dosing).

NAALADase = target: T1, NAALADase (Homo sapiens, UniProt Q04609); conditions: NAAG as substrate; cited from earlier work
T1 construct: 100 μL tissue; from tissue; host or cells: unspecified tissue
T1 sequence (Q04609 whole entry): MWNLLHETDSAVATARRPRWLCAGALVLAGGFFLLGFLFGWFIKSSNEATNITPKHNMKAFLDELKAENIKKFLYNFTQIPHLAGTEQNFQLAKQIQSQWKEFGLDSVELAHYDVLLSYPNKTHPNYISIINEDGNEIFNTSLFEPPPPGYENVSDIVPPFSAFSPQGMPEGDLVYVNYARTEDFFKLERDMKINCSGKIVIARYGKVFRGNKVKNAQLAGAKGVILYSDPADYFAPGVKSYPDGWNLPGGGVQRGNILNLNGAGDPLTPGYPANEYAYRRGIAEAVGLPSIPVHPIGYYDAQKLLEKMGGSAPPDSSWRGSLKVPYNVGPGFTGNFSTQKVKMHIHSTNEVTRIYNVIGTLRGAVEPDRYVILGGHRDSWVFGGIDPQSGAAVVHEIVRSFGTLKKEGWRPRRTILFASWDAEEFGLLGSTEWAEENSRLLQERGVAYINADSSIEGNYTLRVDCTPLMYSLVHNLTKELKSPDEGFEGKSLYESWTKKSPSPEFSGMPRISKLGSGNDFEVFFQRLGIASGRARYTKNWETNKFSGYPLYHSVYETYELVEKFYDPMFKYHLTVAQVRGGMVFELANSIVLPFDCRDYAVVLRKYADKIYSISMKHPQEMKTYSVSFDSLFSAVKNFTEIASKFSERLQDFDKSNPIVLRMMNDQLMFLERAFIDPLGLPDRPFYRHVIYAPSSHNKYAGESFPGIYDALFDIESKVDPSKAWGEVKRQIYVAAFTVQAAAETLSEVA

O=C(O)CCC(CP(=O)(O)Cc1c(F)c(F)c(F)c(F)c1F)C(=O)O (stereo not shown) [Compound A]
hyperalgesic response (withdrawal latency difference score) [1]: completely reversed
FIBER NUMBER ([2]; 8 week group, 10 mg/kg i.p. daily): 79156 ± 2436
PERCENT DIFFERENCE (fiber number between glaucoma and normal eye) ([2]; 8 week group, 10 mg/kg i.p. daily, positive value indicates fewer fibers in the glaucoma eye): −1.82 ± 2.92%
mean percent fiber loss versus saline-treated control groups ([2]; at 8 weeks, p=0.05 for Compound A and p=0.02 for Compound B): statistically less
remaining axons relative to the saline-treated rats ([3]; 2 weeks after transection): 3 times
FIBER NUMBER ([3]; 2 weeks survival): 26,426 ± 23,025
PERCENT DIFFERENCE (fiber number between transected eye and normal eye) ([3]; 2 weeks survival): 65.3 ± 30.9%
FIBER NUMBER ([3]; 4 weeks survival): 13,599 ± 7,868
PERCENT DIFFERENCE (fiber number between transected eye and normal eye) ([3]; 4 weeks survival): 82.4 ± 8.9%
nerve conduction velocity deficits versus diabetic vehicle controls (BB/W diabetic rats; 10 mg/kg daily, from 8 weeks to six months of treatment, FIG. 12): significantly less severe nerve conduction deficits
withdrawal latency versus diabetic vehicle-treated rats (BB/W diabetic rats; 10 mg/kg i.p. daily, starting after 4 weeks and through six months of treatment, FIG. 11): longer withdrawal latencies
motor and sensory nerve conduction velocities (STZ-diabetic rats; 10 mg/kg daily for 4, 8 and 12 weeks, FIGS. 9A and 9B): tended to improve (increase)
treatment time after which improvement of motor nerve conduction velocity was significant (STZ-diabetic rats; 10 mg/kg daily, FIG. 9A): 12 weeks
treatment time after which improvement of sensory nerve conduction velocity was significant (STZ-diabetic rats; 10 mg/kg daily, FIG. 9B): 8 weeks
DIFFERENCE (disease onset, Compound A treated versus vehicle treated mice) (transgenic G1H mice; 50 mg/kg daily intraperitoneal injections): 32 and 25
DISEASE ONSET FOR COMPOUND A TREATED MICE (transgenic G1H mice; 50 mg/kg daily intraperitoneal injections from one month of age): 221 days and 166 days

O=C(O)CCC(CP(=O)(O)O)C(=O)O (stereo not shown) [Compound C, 2-(phosphonomethyl)pentanedioic acid]
TGF-β2 concentrations (TGF-β2): increased concentrations
TGF-β1 concentrations (TGF-β1 [4]): increased concentrations
neuroprotective effect in vivo in the presence of TGF-β neutralizing antibodies [5]: significantly attenuated
TGF-β1 levels (TGF-β1 [6]): significant rise
neuroprotective effect in the presence of TGF-β neutralizing antibodies (ischemic cell cultures; FIG. 3): blocked
neuroprotective effect in the presence of FGF antibody (ischemic cell cultures; FIG. 4): did not block
time of drug treatment from which the effect was significant [7]: 11 days
difference scores between the two paws ([7]; FIG. 8): dramatically normalized

CC(=O)N[C@@H](CC(=O)O)C(=O)N[C@@H](CCC(=O)O)C(=O)O [NAAG, N-acetyl-aspartyl-glutamate] (Ac-Asp-Glu-OH)
Km (NAALADase): 0.54 µM

Reference: US6992215B2, “Thiol-based NAALADase inhibitors” (Guildford Pharmaceuticals Inc., priority 2001, dated 2006)
